Entries after “also recorded” stand apart in the source; their conditions may differ.
How the values were obtained:
Assay type in all cases: cell-based
PC12 cells = assay: NGF-induced neurite outgrowth; conditions: NGF 50 ng/ml
Experimental: PC12 were transfected with GFP-TRIPα (lack squares) or GFP (white diamonds) and subjected to a time-course exposure to NGF (50 ng/ml). At each time-point cells were fixed and the number of transfected cells with neurites was counted from at least 200 cells.
Since Trio is an activator of RhoA and is expressed in PC12 cells (Estrach et al., 2002), it was analysed whether TRIPα could interfere with serum-induced neurite retraction in NGF-differentiated PC12 cells. […] After NGF treatment, cells were subjected to serum addition (DMEM medium supplemented with 10% HS and 5% fetal calf serum (FCS)) from 0 to 15 min (FIG. 6A). Cells were then fixed and permeabilised (Estrach et al., 2002) and observed as described in FIG. 5. Cells with neurites are defined as cells with neurites of at least twice the length of the cell body.
However, since the NGF treatment was performed for 16 hours, it was still possible that the effect of TRIPα on the NGF-differentiation signal was masked by the long NGF exposure. To test this hypothesis, PC12 cells expressing GFP-TRIPα or […] were subjected to a time-course exposure to NGF (50 ng/ml) for 1 to 24 hours.

[1] = tested on: TrioGEFD2-mediated RhoA activation; assay: RhoA activity assay (Rhotekin RBD pull-down) in COS cells; conditions: COS cells co-transfected, 48 hours
Source text: FIG. 5B represents the inhibitory effect of TRIPα on TrioGEFD2-mediated RhoA activation in intact cells using the RhoA activity assay, COS cells were transfected with GFP-TRIPα (left line), TrioGEFD2 (middle line) or both (right line). Cell lysates were subjected to GST-pulldown using the recombinant RBD (RhoA binding domain) fragment of the RhoA-specific effector Rhotekin. The presence of the GTP-bound form of RhoA and of the total RhoA protein was detected using a monoclonal anti-RhoA antibody and is represented in the upper two panels. GFP-TRIPα and TrioGEFD2 expression in the cell lysates is shown in the lower two panels.
Quantification of the RhoA activity assay is shown in the right part of the figure. The y-axis represents the ratio between active RhoA and total RhoA, in arbitrary units.
The Inventors then wanted to assess the inhibition by TRIPα of TrioGEFD2-mediated activation of endogenous RhoA in intact cells. To do so, the RhoA activity assay was used to detect the active GTP-bound form of RhoA (Ren et al., 1999). Briefly, COS cells were transfected as described in FIG. 5A with TrioGEFD2 in absence or in the presence of GFP-TRIAPα. 48 hours after transfection, cell lysates were subjected to GST-pull down using 20 μg of the recombinant RBD (RhoA binding domain) fragment of the RhoA-specific effector Rhotekin, that binds only to the activated GTP-bound form of RhoA.

control GEF (GEF720) = molecular target: T1, control GEF (GEF720) (Homo sapiens, UniProt O94827); assay: Yeast Exchange Assay (YEA), RhoA activation; conditions: yeast strain TAT7, reporter gene
T1 construct: expressed in transfected cells; host or cells: yeast strain TAT7
T1 sequence (O94827 1-1006): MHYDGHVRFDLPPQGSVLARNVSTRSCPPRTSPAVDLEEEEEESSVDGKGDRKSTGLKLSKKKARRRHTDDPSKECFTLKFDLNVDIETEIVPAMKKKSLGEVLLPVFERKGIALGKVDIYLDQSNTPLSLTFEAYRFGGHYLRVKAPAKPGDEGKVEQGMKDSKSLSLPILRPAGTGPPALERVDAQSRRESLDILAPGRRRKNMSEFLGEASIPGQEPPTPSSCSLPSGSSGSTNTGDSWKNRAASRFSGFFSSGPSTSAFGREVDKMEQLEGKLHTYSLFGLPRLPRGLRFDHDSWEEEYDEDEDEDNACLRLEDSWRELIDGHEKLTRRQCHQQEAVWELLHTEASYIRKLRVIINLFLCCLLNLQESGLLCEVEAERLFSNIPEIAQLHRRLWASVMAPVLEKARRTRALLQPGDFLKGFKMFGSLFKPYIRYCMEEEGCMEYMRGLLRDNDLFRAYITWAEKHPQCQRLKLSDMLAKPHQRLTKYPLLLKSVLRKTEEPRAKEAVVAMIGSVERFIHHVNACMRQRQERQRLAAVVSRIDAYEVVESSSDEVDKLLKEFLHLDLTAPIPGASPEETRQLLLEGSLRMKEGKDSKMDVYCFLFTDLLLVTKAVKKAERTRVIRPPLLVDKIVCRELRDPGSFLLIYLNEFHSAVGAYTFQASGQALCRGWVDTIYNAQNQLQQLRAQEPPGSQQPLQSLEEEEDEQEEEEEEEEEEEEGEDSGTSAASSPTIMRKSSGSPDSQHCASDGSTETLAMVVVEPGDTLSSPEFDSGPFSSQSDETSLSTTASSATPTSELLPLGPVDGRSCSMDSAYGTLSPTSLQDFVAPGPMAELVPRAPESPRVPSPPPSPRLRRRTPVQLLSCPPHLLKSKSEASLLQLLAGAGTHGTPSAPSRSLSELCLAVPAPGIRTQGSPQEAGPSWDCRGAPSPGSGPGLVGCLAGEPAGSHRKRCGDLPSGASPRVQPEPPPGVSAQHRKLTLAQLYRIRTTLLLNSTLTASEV
Source text: The wild type GTPase is fused to the LexA DNA binding domain (Matchmaker GAL4 two-hybrid, Clontech Laboratories, Inc., USA) and the effector to the […] (Matchmaker GAL4 two-hybrid, Clontech, Inc., USA). Under these conditions, no binding occurs in the TAT7 strain (De Toledo et al., 2000). Upon addition of a third plasmid expressing the GEF, the GTPase gets activated and binds to its effector, thus leading to the transactivation of the reporter gene LacZ.
TrioGEFD2, a control GEF (GEF720) or an empty vector (−GEF: corresponds to a vector without GEF) were introduced into the YEA system and analysed for their ability to transactivate the reporter gene in absence (left panel) or in the presence (right panel) of TRIPα.
In order to better characterise the effect of TRIAPα on the Trio full length RhoGEF activity, the yeast exchange assay (YEA) was used, which is a quick and quantitative test derived from the classical two-hybrid system allowing to measure Rho-GEF activity and specificity (De Toledo et al., 2000). This functional assay is based on the fact that the GTPase binds to its effector only if it is activated by a RhoGEF. Briefly, yeasts are transformed with the GTPase fused to the LexA binding domain (LexA), and its effector to the GAL-4 Activating Domain (GAD), and with the adequate Rho-GEF partner in the yeast strain TAT7 (FIG. 7). […]

Sequence: AREGADGAICGYNLATLVMLGPSERVFCPLCEPCSSDIYELM [TRIPα, 42-amino acid peptide corresponding to the variable region of TRIAPα]
- Effect on NGF-induced neurite outgrowth, time course (PC12 cells; 1 to 24 hours): enhances NGF-induced neurite outgrowth
- Effect on NGF-induced neurite outgrowth after 16 hours NGF (PC12 cells; 16 hours): had no visible effect on the NGF pathway; also recorded: does not seem to have an effect
- Inhibition of TrioGEFD2-mediated RhoA activation in intact cells [1]: able to inhibit TrioGEFD2-mediated RhoA activation
- Effect on control GEF (GEF720) in the YEA system (control GEF (GEF720)): the control GEF is unaffected
